Results as given in US20250019357A1, “[…] MORPHIC FORMS AND MIXTURES FOR THE TREATMENT OF MENTAL DISORDERS OR MENTAL ENHANCEMENT” (TACTOGEN INC, priority 2021, published 2025).

How the values were obtained:
SERT [1] = target: T1, SERT (Rattus norvegicus (Rat), UniProt P31652); assay: In vitro rat synaptosome serotonin uptake inhibition assay (Examples 9, 58); format: biochemical; conditions: rat synaptosomes
Text: (§1) FIG. 7A is a graph showing results from an in vitro rat synaptosome serotonin uptake inhibition assay. […] Details and procedural information for this assay are described in Example 9. The x-axis is the log [dose] concentration measured in molar and the y-axis is the [^3H]-labeled 5-HT reuptake measured in percent.
as §1, with “176” for “7A”, “58.” for “9.”, “x-axis” for “x-axis is”, “concentration is” for “concentration”, “Molar units” for “molar”, “percent of maximum produced by the comparison releaser.” for “percent.”

SERT [2] = target: T1, SERT; assay: In vitro rat synaptosome serotonin release (efflux) assay (Examples 9, 58); format: biochemical; conditions: rat synaptosomes
Text: as §1, with “7B” for “7A”, “release” for “uptake inhibition”, “release” for “reuptake”
as §1, with “177” for “7A”, “release” for “uptake inhibition”, “58.” for “9.”, “x-axis” for “x-axis is”, “release” for “reuptake”

5-HT2B = 5-HT2B (Homo sapiens (Human), UniProt P41595); assay: 5-HT2B antagonist assay (DiscoveRx Calcium NWPLUS, FLIPR); format: cell-based
Sequence of 5-HT2B (P41595 whole entry): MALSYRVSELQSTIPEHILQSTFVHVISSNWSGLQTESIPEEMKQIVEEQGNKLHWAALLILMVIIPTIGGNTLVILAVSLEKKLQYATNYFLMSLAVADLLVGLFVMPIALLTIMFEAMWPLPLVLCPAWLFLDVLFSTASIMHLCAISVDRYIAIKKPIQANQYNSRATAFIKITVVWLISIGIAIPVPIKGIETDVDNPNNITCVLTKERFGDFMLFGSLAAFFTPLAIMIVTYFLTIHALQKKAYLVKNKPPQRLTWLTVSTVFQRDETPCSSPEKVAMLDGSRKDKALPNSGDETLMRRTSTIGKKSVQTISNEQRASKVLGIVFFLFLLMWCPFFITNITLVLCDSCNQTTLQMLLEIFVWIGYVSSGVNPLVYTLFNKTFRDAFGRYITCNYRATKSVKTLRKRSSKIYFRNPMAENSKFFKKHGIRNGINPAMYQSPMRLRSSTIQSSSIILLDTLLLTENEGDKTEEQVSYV
Experimental: 5-HT2A and 5-HT2B Agonist and Antagonist Assays
The DiscoveRx Calcium NWPLUS Assay was used for detection of changes in intracellular calcium as signaled by an increase of dye fluorescence in cells expressing 5-HT2A receptors. Signal was measured on a fluorescent plate reader equipped with fluidic handling capable of detecting rapid changes in fluorescence upon compound stimulation.
To conduct the assay, cell lines were expanded from freezer stocks according to standard procedures. Cells (10,000cells/well) were seeded in a total volume of 50 μL ([…]) into black-walled, clear-bottom, Poly-D-lysine coated 384-well microplates and incubated at 37-C for the appropriate time prior to testing. DMSO concentration for all readouts was <0.2%. […]
Compound agonist activity was measured on a FLIPR Tetra. Calcium mobilization was monitored for 2 minutes with a 5 second baseline read. FLIPR read-Area under the curve was calculated for the two minute read. Compound activity was analyzed using CBIS data analysis suite (ChemInnovation, CA). Percentage activity was calculated as 100%×(mean RFU of test sample−mean RFU of vehicle control)/(mean MAX RFU control ligand −mean RFU of vehicle control). For antagonist mode assays, percentage inhibition was calculated as 100%×(1−(mean RFU of test sample−mean RFU of vehicle control)/(mean RFU of EC80 control−mean RFU of vehicle control)). […]

How did the “[3H]-labeled 5-HT reuptake (serotonin uptake inhibition)” value (SERT [1]) turn out when `CCC(Cc1ccc2ccoc2c1)NC` (racemic) [RS-6-MBPB] was run?
The value was “rapidly increases extracellular serotonin by inhibiting reuptake”.

What about the “[3H]-labeled 5-HT release” value (SERT [2]) of the same molecule?
The value was “rapidly increases extracellular serotonin by stimulating release”.

What about the IC50 (5-HT2B) of the same molecule?
Its IC50 is 3.08 µM.
